Laboratory results from patent US11447525B2 (NIIGATA UNIVERSITY, priority 2018, dated 2022).
Non-standard residues stand in square brackets, D forms with d. Residues, ends and D or L forms follow the SMILES beside them. No end group written: not given here. NMeR = CN[C@@H](CCCNC(=N)N)C(=O)O

Experiment: Degradation test by human blood plasma, MALDI-TOFMS analysis
Assay type: in vitro ADME
Conditions: for remaining at 5 min / remaining at 10 min / remaining at 20 min / remaining at 0.5 h / remaining at 1 h / remaining at 2 h: read-out: degradation resistance (proportion of the peptide retained without degradation)
Description: Specifically, a peptide composed of the amino acid sequence represented by SEQ ID NO: 1 (hereafter sometimes referred to as “PCPP11”) was added to human blood plasma having a concentration of 50% by mass, the mixture was sampled immediately after starting the degradation test (after 0 minutes), and then after 5 minutes, after 10 minutes, after 20 minutes, after 30 minutes, after 60 minutes and after 120 minutes, and the samples were analyzed by MALDI-TOFMS (Matrix Assisted Laser Desorption/Ionization-Time Of Flight Mass Spectrometry). In Table 2, “UK” is an abbreviation for “unknown”. Further, the No. shown for each peptide in Table 2 corresponds with the numerical value recorded on the peaks of the graphs shown in FIG. 1.
Each of the peptides described above was added to human blood plasma having a concentration of 50% by mass, the resulting mixture was sampled immediately after starting the degradation test (after 0 minutes), and then after 5 minutes, after 10 minutes, after 20 minutes, after 30 minutes, after 60 minutes and after 120 minutes, and the samples were analyzed by MALDI-TOFMS. The results are shown in FIGS. 2 to 6 and Tables 4 to 6 shown below. Furthermore, the data for the degradation test by human blood plasma using PCPP11 from Reference Example 1 and the degradation tests by human blood plasma using each of the above peptides are collated in FIG. 7 and Table 7. The SEQ ID NO listed for the FAM-labeled peptide represents the SEQ ID NO of the peptide portion. Further, the No. shown for each peptide in Tables 4 to 6 corresponds with the numerical value recorded on the peaks of the graphs shown in FIGS. 2 to 6. In each table, in those cases where the numerical values are shown separated into an upper row and a lower row, the upper row value indicates the proportion (%) of peak area for two or more peptides relative to the total peak area in the MALDI-TOFMS analysis. On the other hand, the lower row value indicates the proportion (%) of each peptide when the peak area for the two or more peptides is deemed to be 100%. Moreover, for example, for the peptide No. 9 shown in Table 4, the left-side “70.0%” indicates the proportion (%) of the peptide No. 9 when the total peak area for the peptides No. 9 to 11 is deemed to be 100%, whereas the right-side “65%” indicates the proportion (%) of the peptide No. 9 relative to the total peak area in the MALDI-TOFMS analysis. This system is also used in the following tables.

[1] = 50% by mass human blood plasma, 5 min
[2] = 50% by mass human blood plasma, 10 min
[3] = 50% by mass human blood plasma, 20 min
[4] = 50% by mass human blood plasma, 30 min
[5] = 50% by mass human blood plasma, 60 min
[6] = 50% by mass human blood plasma, 120 min
[7] = 50% by mass human blood plasma, Start
[8] = LL peptide added to 50% by mass human blood plasma, 20 min
[9] = LL peptide added to 50% by mass human blood plasma, 60 min
[10] = LL peptide added to 50% by mass human blood plasma, 120 min

Row | Compound | remaining at 5 min [1] | remaining at 10 min [2] | remaining at 20 min [3] | remaining at 0.5 h [4] | remaining at 1 h [5] | remaining at 2 h [6] | degradation resistance (proportion of the peptide retained without degradation) [7] | degradation resistance compared with the stand-alone PCPP11 and the FAM-PCPP11 (50% by mass human blood plasma) | also measured
1 | C[C@H](O)[C@@H](NC(=O)[C@@H](Cc1c[nH]c2ccccc12)NC(=O)[C@@H](Cc1c[nH]cn1)NC(=O)[C@@H](CCCCN)NC(=O)[C@H]1CCCN1C(=O)CNC(=O)[C@@H]1CCCN1C(=O)[C@H](CCCCN)NC(=O)[C@H](Cc1c[nH]cn1)NC(=O)[C@H](Cc1c[nH]c2ccccc12)NC(=O)[C@@H](NC(=O)[C@@H](NC(=O)[C@@H]1CCCN1C(=O)[C@H](CCCNC(=N)N)N(C)C(=O)[C@@H](N)CCCNC(=N)N)[C@@H](C)O)[C@@H](C)O)C(=O)N[C@@H](C(=O)N1CCC[C@@H]1C(=O)N[C@H](CCCNC(=N)N)C(=O)N[C@H](CCCNC(=N)N)C(=O)O)[C@H](C)O [compound 19] (H-R[NMeR]PTTWHKPG[dP][dK][dH][dW][dT][dT][dP][dR][dR]-OH; N-terminus and C-terminus assumed) | 100% | 100% | 100% | 100% | 100% | 100% | 100% |  | 
2 | RRPTTWHKPGRRPTTWHKP [No. 9] |  |  |  |  |  |  |  | superior degradation resistance | 
3 | RRPTTWHKPGRRPTTWHKPGRRPTTWHKP [No. 12] |  |  |  |  |  |  |  | superior degradation resistance | degradation products observed (50% by mass human blood plasma, within 120 minutes of starting the test): no degradation products were observed
4 | C[C@@H](O)[C@H](NC(=O)[C@@H](NC(=O)[C@@H]1CCCN1C(=O)[C@H](CCCNC(=N)N)NC(=O)[C@H](CCCNC(=N)N)NC(=O)CNC(=O)[C@@H]1CCCN1C(=O)[C@H](CCCCN)NC(=O)[C@H](Cc1c[nH]cn1)NC(=O)[C@H](Cc1c[nH]c2ccccc12)NC(=O)[C@@H](NC(=O)[C@@H](NC(=O)[C@@H]1CCCN1C(=O)[C@H](CCCNC(=N)N)N(C)C(=O)[C@@H](N)CCCNC(=N)N)[C@@H](C)O)[C@@H](C)O)[C@@H](C)O)C(=O)N[C@@H](Cc1c[nH]c2ccccc12)C(=O)N[C@@H](Cc1c[nH]cn1)C(=O)N[C@@H](CCCCN)C(=O)N1CCC[C@H]1C(=O)O [No. 18] (H-R[NMeR]PTTWHKPGRRPTTWHKP-OH; N-terminus and C-terminus assumed) |  |  |  |  |  |  |  | superior degradation resistance | 
5 | C[C@H](O)[C@@H](NC(=O)[C@@H](Cc1c[nH]c2ccccc12)NC(=O)[C@@H](Cc1c[nH]cn1)NC(=O)[C@@H](CCCCN)NC(=O)[C@H]1CCCN1C(=O)CNC(=O)[C@@H]1CCCN1C(=O)[C@H](CCCCN)NC(=O)[C@H](Cc1c[nH]cn1)NC(=O)[C@H](Cc1c[nH]c2ccccc12)NC(=O)[C@@H](NC(=O)[C@@H](NC(=O)[C@@H]1CCCN1C(=O)[C@H](CCCNC(=N)N)NC(=O)[C@@H](N)CCCNC(=N)N)[C@@H](C)O)[C@@H](C)O)C(=O)N[C@@H](C(=O)N1CCC[C@@H]1C(=O)N[C@H](CCCNC(=N)N)C(=O)N[C@H](CCCNC(=N)N)C(=O)O)[C@H](C)O [No. 15] (H-RRPTTWHKPG[dP][dK][dH][dW][dT][dT][dP][dR][dR]-OH; N-terminus and C-terminus assumed) |  |  |  |  |  |  |  | superior degradation resistance | 

More lines, main results first:

Row | remaining at 5 min [1] | remaining at 10 min [2] | remaining at 20 min [3] | remaining at 0.5 h [4] | remaining at 1 h [5] | remaining at 2 h [6] | degradation resistance (proportion of the peptide retained without degradation) [7] | degradation resistance compared with the stand-alone PCPP11 and the FAM-PCPP11 (50% by mass human blood plasma) | Compound | also measured
6 | 100% | 100% | 94% | 84% | 58% | 32% | 100% |  | C[C@H](O)[C@@H](NC(=O)[C@@H](Cc1c[nH]c2ccccc12)NC(=O)[C@@H](Cc1c[nH]cn1)NC(=O)[C@@H](CCCCN)NC(=O)[C@H]1CCCN1C(=O)CNC(=O)[C@@H]1CCCN1C(=O)[C@H](CCCCN)NC(=O)[C@H](Cc1c[nH]cn1)NC(=O)[C@H](Cc1c[nH]c2ccccc12)NC(=O)[C@@H](NC(=O)[C@@H](NC(=O)[C@@H]1CCCN1C(=O)[C@H](CCCNC(=N)N)NC(=O)[C@@H](N)CCCNC(=N)N)[C@@H](C)O)[C@@H](C)O)C(=O)N[C@@H](C(=O)N1CCC[C@@H]1C(=O)N[C@H](CCCNC(=N)N)C(=O)N[C@H](CCCNC(=N)N)C(=O)O)[C@H](C)O [compound 15] (H-RRPTTWHKPG[dP][dK][dH][dW][dT][dT][dP][dR][dR]-OH; N-terminus and C-terminus assumed) | proportion of each peptide when the peak area for the two or more peptides is deemed to be 100% (Ld peptide added to 50% by mass human blood plasma, 5 min): (89.0%); proportion of each peptide when the peak area for the two or more peptides is deemed to be 100% (Ld peptide added to 50% by mass human blood plasma, 10 min): (82.2%); proportion of each peptide when the peak area for the two or more peptides is deemed to be 100% (Ld peptide added to 50% by mass human blood plasma, 20 min): (71.9%); proportion of each peptide when the peak area for the two or more peptides is deemed to be 100% (Ld peptide added to 50% by mass human blood plasma, 30 min): (62.3%); proportion of each peptide when the peak area for the two or more peptides is deemed to be 100% (Ld peptide added to 50% by mass human blood plasma, 60 min): (43.0%); proportion of each peptide when the peak area for the two or more peptides is deemed to be 100% (Ld peptide added to 50% by mass human blood plasma, 120 min): (24.6%); proportion of each peptide when the peak area for the two or more peptides is deemed to be 100% (Ld peptide added to 50% by mass human blood plasma, Start): (96.9%)
7 |  | 84% | 89% | 91% | 79% | 65% | 100% |  | RRPTTWHKPGRRPTTWHKP [compound 9] | degradation resistance (proportion of the peptide retained without degradation) [1]: 100%; proportion of peak area relative to the total peak area in the MALDI-TOFMS analysis (LL peptide added to 50% by mass human blood plasma, 5 min): 100%; proportion of each peptide when the peak area for the two or more peptides is deemed to be 100% [8]: 92.1%; proportion of peak area relative to the total peak area in the MALDI-TOFMS analysis [8]: 89%; proportion of each peptide when the peak area for the two or more peptides is deemed to be 100% (LL peptide added to 50% by mass human blood plasma, 30 min): (92.1%); proportion of each peptide when the peak area for the two or more peptides is deemed to be 100% [9]: 82.1%; proportion of peak area relative to the total peak area in the MALDI-TOFMS analysis [9]: 79%; proportion of each peptide when the peak area for the two or more peptides is deemed to be 100% [10]: 70.0%; proportion of peak area relative to the total peak area in the MALDI-TOFMS analysis [10]: 65%; proportion of peak area relative to the total peak area in the MALDI-TOFMS analysis (LL peptide added to 50% by mass human blood plasma, Start): 100%
8 | 93% |  |  |  |  |  | 100% |  | RRPTTWHKP [compound 1] | 
9 |  |  |  |  |  | 100% |  |  | RRPTTWHKPGRRPTTWHKPGRRPTTWHKP [Peptide 12] | 
10 | 100% | 100% | 100% | 100% | 100% | 100% | 100% |  | C[C@@H](O)[C@H](NC(=O)[C@@H](NC(=O)[C@@H]1CCCN1C(=O)[C@H](CCCNC(=N)N)NC(=O)[C@H](CCCNC(=N)N)NC(=O)CNC(=O)[C@@H]1CCCN1C(=O)[C@H](CCCCN)NC(=O)[C@H](Cc1c[nH]cn1)NC(=O)[C@H](Cc1c[nH]c2ccccc12)NC(=O)[C@@H](NC(=O)[C@@H](NC(=O)[C@@H]1CCCN1C(=O)[C@H](CCCNC(=N)N)N(C)C(=O)[C@@H](N)CCCNC(=N)N)[C@@H](C)O)[C@@H](C)O)[C@@H](C)O)C(=O)N[C@@H](Cc1c[nH]c2ccccc12)C(=O)N[C@@H](Cc1c[nH]cn1)C(=O)N[C@@H](CCCCN)C(=O)N1CCC[C@H]1C(=O)O [compound 18] (H-R[NMeR]PTTWHKPGRRPTTWHKP-OH; N-terminus and C-terminus assumed) | 
11 | 100% | 100% | 100% | 100% | 100% |  | 100% |  | RRPTTWHKPGRRPTTWHKPGRRPTTWHKP [compound 12] | 
12 |  | 67% |  |  |  |  |  |  | RRPTTWHKP [Peptide 1] | 
